According to patent US10213397B2, “Microtubule polymerization modulators for treating LMNA-related dilated cardiomyopathy” (priority 2016, dated 2019):
“Also recorded” adds a separate entry of the source.

Tests used:
[1] = system: patient diagnosed with LMNA-related DCM; assay: Treatment of patient diagnosed with LMNA-related dilated cardiomyopathy (case report); format: in vivo, human; conditions: for patient's condition: carvedilol 25 mg twice daily with eplerenone 25 mg once daily, before colchicine
Excerpt: In August of 2013 patient […] was diagnosed with LMNA-related DCM, also known as “cardiac laminopathy,” an inherited degenerative cardiac disorder characterized by left ventricular dilation, arrhythmia, and cardiac enlargement. It is a subset of “non-ischemic cardiomyopathy.”
The patient worked as a college professor and the patient's condition worsened throughout the 2013-14 school year. The patient was heading toward long-term disability due to fatigue, shortness of breath and palpitations, all due to their progressive heart failure. In October, an implantable defibrillator was placed in the patient's chest, and the patient was hospitalized twice for cardiac arrhythmias (i.e., once for excessive premature ventricular contractions or TVCs′, and once for cardiac resynchronization for atrial fibrillation). Because conventional heart failure therapy appeared unsuccessful at ameliorating disease effects, the patient undertook a comprehensive review of literature on laminopathy to find a novel treatment.
In June 2014, the patient began experiencing PVC-burden cardiomyopathy, a secondary myopathy caused by a heavy premature ventricular contraction (PVC) load. Their PVCs were measured at 52,000 over a 48-hour holter-monitor. Given their deteriorating condition, now with NYHA class III heart failure, they sought care at Northwestern University's Bluhm Cardiovascular Institute in Chicago with Dr. Jane Wilcox.
Dr. Wilcox adjusted the patient's existing medication regimen to reflect best practice for treating dilated cardiomyopathy. The patient began taking 25 mg twice daily of carvedilol, as well as 25 mg once daily of eplerenone.
In January 2015, the patient underwent an unsuccessful procedure to ablate cardiac tissue causing their PVC burden. Their heart ejection fraction (EF), previously measured at 55%, was now measured at 45%. Later that month, the patient was hospitalized for Sotalol (antiarrhythmic drug) initiation. Sotalol was also unsuccessful in treating the patient's PVCs.
The patient had been very symptomatic with PVC's and could tell when his they were having PVC's.
Further, the patient was now considered to have NYHA class I heart failure symptoms and able to resume all previous activities, including running and biking, whereas previously the patient was NYHA class III (i.e., heart failure symptoms with mild activity).
As of July 2016, the patient stopped taking Sotalol because it seemed superfluous in respect to the patient's carvedilol regimen, and the patient has continued to be NYHA class I (i.e. asymptomatic).

[2] = system: LMNA cells; conditions: laboratory studies, reference 4 (Larrieu et al.); cited from earlier work
[3] = system: familial Mediterranean fever (FMF); conditions: long-term use; reference 3; cited from earlier work
[4] = cited from earlier work

COc1ccccc1OCCNCC(O)COc1cccc2[nH]c3ccccc3c12 (stereo not drawn) [carvedilol]
patient's condition [1]: continued to deteriorate

CC(C)NCC(O)c1ccc(NS(C)(=O)=O)cc1 (stereo not drawn) [Sotalol]
treatment of the patient's PVCs ([1]; January 2015, before colchicine): unsuccessful

COc1cc2c(c(OC)c1OC)-c1ccc(OC)c(=O)cc1[C@@H](NC(C)=O)CC2 [colchicine]
nuclear shape defects characteristic of LMNA cells [2]: rescue nuclear shape defects
treatment of FMF (preventing attacks, reduction of symptoms, prevention and treatment of amyloidosis) [3]: very effective
toxicity with P-gp or strong CYP3A4 inhibitors ([4]; patients with renal or hepatic impairment, colchicine taken in therapeutic doses): life-threatening and fatal colchicine toxicity
frequency of agranulocytosis, thrombocytopenia, aplastic anemia, leukopenia, granulocytopenia, pancytopenia (hematologic, rare) ([4]; reported adverse reactions): less than 0.1%
frequency of alopecia (dermatologic, rare) ([4]; reported adverse reactions): less than 0.1%
frequency of azoospermia, oligospermia (genitourinary, rare) ([4]; reported adverse reactions): less than 0.1%
frequency of myopathy, rhabdomyolysis, elevated CPK, myotonia, muscle weakness, muscle pain (musculoskeletal, rare) ([4]; reported adverse reactions): less than 0.1%
frequency of pharyngolaryngeal pain (respiratory, common) ([4]; reported adverse reactions): 3%
negative side effects ([1]; 1.8 mg colchicine twice daily (3.6 mg total dose), monitored for myelosuppression): no negative side effects; also recorded: has not experienced negative side effects
NYHA class of heart failure symptoms ([1]; August 2015, previously NYHA class III): NYHA class I
improvement in cardiac output, measured non-invasively using LVOT velocity time integral (VTI) ([1]; August 2015 echocardiogram, colchicine started early 2015): 20%
ventricular remodeling (left ventricular size and volume) ([1]; February 2016 echocardiogram): positive ventricular remodeling
cardiac output (LVOT) ([1]; February 2016 echocardiogram, LVOT initially was 15): 22
ejection fraction ([1]; February 2016 echocardiogram, improvement from 40-45%): 55%
NYHA class of heart failure symptoms ([1]; as of July 2016, after stopping eplerenone and Sotalol): NYHA class I
general condition / overall health of the patient ([1]; on colchicine, at higher doses than typically used for gout): dramatic recovery; also recorded: continued to improve
PVC volume ([1]; within 48 hours of colchicine administration, patient with LMNA-related DCM): diminished considerably

COC(=O)[C@@H]1CC2=CC(=O)CC[C@]2(C)[C@@]23O[C@@H]2C[C@@]2(C)[C@@H](CC[C@@]24CCC(=O)O4)[C@H]13 [eplerenone]
reason for ceasing drug (potassium levels) ([1]; March 2016): elevated potassium levels
patient's condition [1]: continued to deteriorate
